EP0209274A2, “Furanone derivatives” (ELI LILLY AND COMPANY, priority 1985, dated 1987)

Key:
[1] = molecular target: Pancreatic phospholipase A2 (Homo sapiens, UniProt P04054); experiment: Phospholipase A2 (PLA2) Assay; type: biochemical; conditions: 30 µg/ml test compound; inhibition of 14C-free fatty acid formation
Protocol: The assay buffer contained 10 mM Tris-HCl buffer, pH 8.0, 100 mM NaCl, 1 mM CaCl2 and 1 mg/ml of bovine serum albumin. A toluene-ethanol (1:1 v/v) solution of phosphatidiylcholine, L-a-dipalmitoyl-(2-palmitoyl-1-^14C) obtained from New England Nuclear was evaporated to dryness in a flask under nitrogen and the assay buffer was added to give a substrate concentration of 9.0 x 10^-5M (specific activity = 27.7 mCi/mmol). The mixture was sonicated for 5 minutes in a Bransonic 220 Sonication Bath. Pancreatic phospholipase A2 (specific activity = 600 units/mg) was diluted with the assay buffer to give an enzyme concentration of 0.1 mg/ml. […] To initiate the enzyme reaction, 0.1 ml of the mixture containing the substrate was added to the enzyme solution and the reaction mixture was further incubated for 30 minutes at 37°C. The reaction was then terminated by the addition of 20 µl of 1M citric acid.
Fifty µl of the mixture was added to 10 ml of scintillation fluid [5.88 g of 2,5-diphenyl-oxazole and 118 mg of 1,4-bis(5-phenyloxazol-2-yl)benzene] dissolved in 650 ml of toluene and 350 ml of Triton X-100) and the radioactivity was determined in an Isocap/300 liquid scintillation counter (Searle Analytic Inc., Southfield, Michigan). Another 50 µl of the mixture was applied directly onto the spotting area of a silica gel plate (LK6D, Whatman, Clifton, N.J.) and subjected to thin layer chromatography in a solvent system of ethyl acetate:acetic acid:2,2,4-trimethylpentane:H20 (90:20:50:100, v/v/v). The silica gel on the plate was scraped in 1 cm sections, suspended in 5 ml of the Triton X-100 based scintillation fluid and the radioactivity was determined. Phosphatidylcholine remained at the origin while fatty acids migrated to a few centimeters (2-3 cm) below the solvent front. The percent of ^14C-free fatty acid formed with the test compound added was calculated as compared to the amount formed in control experiments where no test compound was added. […]

[2] = molecular target: T1, fatty acid cyclooxygenase (Homo sapiens, UniProt P23219); experiment: Fatty Acid Cyclooxygenase (FCO) Assay; type: biochemical; conditions: 30 µg/ml test compound; inhibition of formation of PGE2; enzyme from human platelets
T1 construct: Microsomes were prepared from 185 bags of human platelets; from tissue; host or cells: human platelets (solubilized microsomes, then electrofocusing and Sephadex G-200)
T1 sequence (P23219 24-599): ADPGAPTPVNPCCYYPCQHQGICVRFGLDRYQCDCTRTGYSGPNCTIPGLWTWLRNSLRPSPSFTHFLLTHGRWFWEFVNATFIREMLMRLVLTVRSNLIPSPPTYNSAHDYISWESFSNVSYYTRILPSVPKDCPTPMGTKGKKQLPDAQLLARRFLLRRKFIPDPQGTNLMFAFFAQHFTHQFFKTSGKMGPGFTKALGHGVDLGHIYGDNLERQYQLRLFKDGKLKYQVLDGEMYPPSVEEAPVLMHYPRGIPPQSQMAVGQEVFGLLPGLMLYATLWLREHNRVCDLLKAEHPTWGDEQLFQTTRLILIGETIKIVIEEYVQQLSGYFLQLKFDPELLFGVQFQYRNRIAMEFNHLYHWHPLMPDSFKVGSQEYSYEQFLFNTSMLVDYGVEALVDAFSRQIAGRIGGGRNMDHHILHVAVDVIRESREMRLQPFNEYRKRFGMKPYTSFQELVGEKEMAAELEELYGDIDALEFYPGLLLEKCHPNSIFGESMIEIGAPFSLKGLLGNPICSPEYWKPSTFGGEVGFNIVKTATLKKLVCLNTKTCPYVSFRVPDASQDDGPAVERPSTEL
Protocol: Microsomes were prepared from 185 bags of human platelets (each bag containing the platelets from one pint of blood prepared using differential centrifugation procedures). The platelets from approximately 60 bags were prepared at one time. Platelet-rich plasma (500 g) was centrifuged at 10,000 x g for 20 minutes, and the platelet pellet was suspended in 100 ml of 0.1M. potassium phosphate buffer, pH 8.0, with a Teflon glass homogenizer and sonicated for 5.0 minutes with a Bronson Sonifier (Model 350) in a rosette flask cooled in ice water. Disrupted platelets were centrifuged 15 minutes at 10,000 x g. The supernatant was centrifuged at 100,000 x g for 90 minutes and the microsomal pellets were homogenized in 25 ml of 20% sucrose containing 1.0% Triton X-100 detergent. After 30 minutes at 4°C, the solubilized microsomes were centrifuged at 100,000 x g for 60 minutes. The yellow supernatant was removed and stored at -70°C.
The solubilized fatty acid cyclooxygenase was applied to a 440 ml electrofocusing column (LKB-8012) containing 1% phisolytes (Brinkman Instruments, Westburgh, NY), pH 2-11, with the cathode at the top of the column. The enzyme was layered onto the column at the appropriate time so that its sucrose concentration was equal to that of the column gradient. This was accomplished by checking the gradient concentration periodically with a sucrose hand refractometer. Electrofocusing was carried out for 16 hours with an initial voltage of 400 V and a final voltage of 900-1,000 volts. Fractions were collected (20 ml) and assayed for PGE2 formation. Active peak fractions were pooled and concentrated by ultrafiltration (XM 100A) to a volume of 3-5 ml.
Active fractions from electrofocusing were applied to a G-200 Sephadex column (2 cm x 46 cm) and eluted with 10 mM potassium phosphate buffer, pH 7.0, in 5 ml fractions. After assay, active fractions were pooled and concentrated to 1.0 ml by ultrafiltration (XM 100A), and kept frozen at -70°C.
Enzyme activity was determined by assaying for PGE2 formation by preincubating the enzyme with 10 mmol/l imidazole phosphate buffer, pH 8.0, 2 mmol/l epinephrine, 2 mmol/1 methemoglobin, and the test compound (30 pg/ml) in a total volume of 0.2 ml for one minute at 37°C. After preincubation, 5 mmol/1 ^14C-arachidonic acid were added and the mixture was incubated an additional 0.5 minutes at 37°C. The enzyme reaction was stopped by the addition of 20 µl of indomethacin (2 mg/ml) in alcohol.
The reaction mixture was spotted (50 pl) on a silica gel (LQ6D) plate and subjected to TLC. The solvent system consisted of chloroform-methanol-glacial acetic acid (90:5:5, v/v/v) and the relative mobilities were PGF2a = 0.235, and PGE2 = 0.47. The silica gel on the plate was scraped in 1 cm sections, suspended in 5 ml of the scintillation fluid [5.88 g of 2,5-diphenyl-oxazole and 118 mg of 1,4-bis(5-phenyloxazol-2-yl)benzene] dissolved in 650 ml of toluene and 350 ml of Triton X-100) and the radioactivity was determined in an Isocap/300 liquid scintillation counter (Searle Analytic, Inc., Southfield, MI). Another 50 µl of the mixture was added to 10 ml of the Triton X-100 based scintillation fluid, and the radioactivity was determined so that the amount of radioactivity recovery from the TLC plate could be ascertained. PGE2 formation for each test compound was determined as a percent of control experiments wherein no test compound was added. Data is expressed in Table I as the percent inhibition of formation of PGE2 at a test compound concentration of 30 pg/ml.

5-Lipoxygenase = molecular target: T2, 5-Lipoxygenase (Cavia porcellus, UniProt A0A286X958); experiment: 5-Lipoxygenase (5-LPO) Assay; type: biochemical, guinea pigs; conditions: inhibition of 5-HETE formation; supernatant of guinea pig PMNL sonicate; read-out: 5-LPO IC50 (µg/ml) (converted)
T2 construct: The PMNL suspension was disrupted by five ½-second pulse sonication; from tissue; host or cells: guinea pig peritoneal polymorphonuclear leukocytes (30,000 x g supernatant of the sonicate)
T2 sequence (A0A286X958 1-674): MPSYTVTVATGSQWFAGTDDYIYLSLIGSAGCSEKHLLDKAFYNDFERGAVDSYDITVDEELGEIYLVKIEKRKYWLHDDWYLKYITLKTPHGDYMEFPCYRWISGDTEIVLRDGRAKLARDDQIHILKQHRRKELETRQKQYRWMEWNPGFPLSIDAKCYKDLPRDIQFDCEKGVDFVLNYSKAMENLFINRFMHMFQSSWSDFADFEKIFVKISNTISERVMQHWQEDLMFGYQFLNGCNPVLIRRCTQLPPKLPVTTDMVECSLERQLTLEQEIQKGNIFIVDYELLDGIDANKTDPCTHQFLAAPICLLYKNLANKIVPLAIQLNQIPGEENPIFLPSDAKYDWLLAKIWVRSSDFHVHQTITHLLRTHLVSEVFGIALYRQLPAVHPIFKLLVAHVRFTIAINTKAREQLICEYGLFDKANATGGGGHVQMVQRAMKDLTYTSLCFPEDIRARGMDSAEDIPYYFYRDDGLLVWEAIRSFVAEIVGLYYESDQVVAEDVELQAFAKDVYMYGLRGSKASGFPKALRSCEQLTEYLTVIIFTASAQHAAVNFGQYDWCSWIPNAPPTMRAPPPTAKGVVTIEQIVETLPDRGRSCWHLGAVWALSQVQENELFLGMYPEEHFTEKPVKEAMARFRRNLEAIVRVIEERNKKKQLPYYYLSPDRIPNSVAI
Protocol: Ten milliliters of a 2% casein solution were injected intraperitoneally to guinea pigs weighing 250-300 gm. After 16-18 hours, the guinea pigs were killed by suffocation in a carbon dioxide chamber. The peritoneal cavity was infused with 70 ml of saline and 40-50 ml of the fluid were recovered from the cavity. After centrifugation, cell pellets were washed twice in Hank's balanced salt solution (HBSS) without calcium ion.
The cells were then suspended in 5 ml of sodium phosphate buffer, pH 7.1 containing 1 mM EDTA, and 0.1% gelatin. About 20-30 x 10^7 cells were obtained from one guinea pig.
The PMNL suspension was disrupted by five ½-second pulse sonication at the setting of 3 in a Branson Sonifier, Model 350, equipped with a microtip. The sonicates were combined and centrifuged at 30,000 x g for 10 minutes. The supernatant was kept frozen at -70°C until use.
. Enzyme activity was determined by assaying for 5-HETE formatiun by first incubating 0.2 ml of the supernatant obtained from the PMNL sonicate with the test compound, 1 mM CaCl2, 2 mM ATP, and 1 mM GSH for 5 minutes at 37°C. The mixture is treated with 5 pM ^14C-arachidonic acid and incubated at 37°C an additional 10 minutes. The enzyme reaction was then stopped by the addition of 10 µl of 1M citric acid and 10 µl of an alcohol solution containing 20 mg/ml each of indomethacin and butylated hydroxyanisole (BHA). The reaction mixture was spotted (50 µl) on a silica gel plate (Baker TLC plate S1250-PA-19C) and subjected to TLC in a solvent system of ethyl acetate/2,2,4-tri- methylpentane/glacial acetic acid/H20 (90:50:20:100).
The radioactivity of the arachidonic acid and its metabolites (5-HETE and LTB4) was visualized from a developed x-ray film which had been exposed to the TLC plate 1-2 days. The amount of 5-HETE formed was quanti- tated by scraping the silica gel area corresponding to the spot on the x-ray film, and the radioactivity determined in a Isocap/300 liquid scintillation counter (Searle Analytic, Inc.).
The percent inhibition of the formation of 5-HETE was determined for each concentration of test compound tested as compared to a control experiment wherein no test compound was added. The concentration and percent inhibition values were plotted on semi log paper and the concentration in which formation of 5-HETE is inhibited by 50% (ICso) was determined by interpolation.

Sequence of Pancreatic phospholipase A2 (P04054 23-148): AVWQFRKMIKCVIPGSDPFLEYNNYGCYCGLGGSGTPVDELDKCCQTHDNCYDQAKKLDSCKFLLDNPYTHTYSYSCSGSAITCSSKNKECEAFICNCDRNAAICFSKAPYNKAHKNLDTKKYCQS

inhibition at 30 µg/mL [1] [%] | inhibition at 30 µg/mL [2] [%] | IC50 (5-Lipoxygenase) [µM] | SMILES
0 |  | 93 | CCCC/C=C\CCCCCCCCCCC1=CC(=O)OC1O (stereo not drawn) [Example 21, (Z)-4-(11-hexadecenyl)-5-hydroxy-2(5H)-furanone]
 | 12 | 8.87 | O=C1C=C(CCCCOc2ccccc2Cc2ccccc2)C(O)O1 (stereo not drawn) [Example 17, 5-Hydroxy-4-[4-(2-benzylphenoxy)butyl]-2(5H)-furanone]
26 | 25 |  | CCCCCCCC/C=C\CCCCCCCCCCC1=CC(=O)OC1O (stereo not drawn) [Example 10, (Z)-4-(11-eicosenyl)-5-hydroxy-2(5H)-furanone]

More lines, now with the values behind:

SMILES | inhibition at 30 µg/mL [1] [%] | inhibition at 30 µg/mL [2] [%] | IC50 (5-Lipoxygenase) [µM]
C=CCCCCCCCC1=CC(=O)OC1O (stereo not drawn) [Example 7, 5-Hydroxy-4-(8-nonenyl)-2(5H)-furanone] | 0 | 23 | 
O=C1C=C(CCCCCOc2ccc3ccccc3c2)C(O)O1 (stereo not drawn) [Example 16, 5-Hydroxy-4-[5-(2-naphthalenyloxy)pentyl]-2(5H)-furanone] |  | 27 | 9.6
CCCCCC/C=C\CCCCCCCCC1=CC(=O)OC1O (stereo not drawn) [Example 8, (Z)-4-(9-hexadecenyl)-5-hydroxy-2(5H)-furanone] | 36 | 21 | 
